A short description of data set [1]: Critical micelle concentration by fluorescent staining with diphenylhexatriene (DPH). The class given is physicochemical. As to conditions: aqueous solution. Here is the method:
A method of measuring CMC is not particularly limited, and any method well known in the art, for example, a fluorescent staining method using diphenylhexatriene (DPH) may be used.
(§1) Specifically, a CMC was measured using fluorescent staining and diphenylhexatriene (DPH), and the hydrodynamic radii (Rh) of micelles formed by each agent (1.0 wt %) were measured by a DLS test. The measured results were compared with those for the conventional amphipathic molecule (detergent), DDM, and thus are shown in Table 1.

Data set [2] can be described thus: Hydrodynamic radius of micelles by dynamic light scattering (DLS). As to conditions: micelles formed by each agent at 1.0 wt %. The class given is physicochemical. The method, then: A method of measuring the radius of the micelles is not particularly limited, and any method well known in the art, for example, a DLS test may be used.
as §1

Data set [3] deals with T1, light harvesting complex I and reaction center (LHI-RC) complex.
T1 construct: His tag (only implied by the Ni-NTA / His-SpinTrap purification); made in house
Description: Stability of LHI-RC complex in amphipathic molecule, UV-visible spectrum over 20 days. The following applies: CMC+0.04 wt % or CMC+0.2 wt %, 20 days at room temperature, FIGS. 7 and 8. In kind it is biochemical, Rhodobacter capsulatus. The method, then:
The super-assembly of R. capsulatus expressed in manipulated R. capsulatus strains was solubilized and purified according to a protocol disclosed in previous literature (P. S. Chae, Analyst, 2015, 140, 3157-3163.). A 10 mL aliquot of a frozen membrane was thawed, and homogenized using a glass tissue homogenizer at room temperature. The homogenate was incubated for 30 minutes at 32° C. under gentle agitation. After addition of 1.0 wt % DDM, the homogenate was further incubated for 30 minutes at 32° C. Following ultracentrifugation, a supernatant containing a solubilized light harvesting complex I and reaction center (LHI-RC) complex was collected, and incubated with an Ni^2+-NTA resin for 1 hour at 4° C. The resin was added to each 10 His-SpinTrap column, and then the resulting product was washed with 500 μL of a coupling buffer (10 mM Tris (pH 7.8), […], 1×CMC DDM) twice. The LHI-RC complex purified by DDM was eluted from the column using a buffer containing 1.0 M imidazole (2×300 μL). […] Protein stability was measured at regular intervals while a protein-amphipathic molecule sample was incubated by measuring the UV-visible spectrum of a specimen in a range of 650 to 950 nm.

For data set [4], the system named is LeuT (leucine transporter). The experiment in a line: LeuT stability by [3H]-Leu substrate binding, scintillation proximity assay (SPA). In kind it is biochemical, Aquifex aeolicus. The method, then:
An experiment of measuring LeuT protein stability for TMGs and TMMs was performed. (a) CMC+0.04 wt % or (b) CMC+0.2 wt % of each amphipathic molecule was used, and the evaluation of the LeuT protein stability was performed by taking an advantage of a characteristic of LeuT binding to a substrate through a scintillation proximity assay (SPA) using [^3H]-Leu. […]
Specifically, wild type LeuT (leucine transporter) derived from a thermophilic bacterium, Aquifex aeolicus, was purified by a previously-disclosed method (G. Deckert et al., Nature 1998, 392, 353-358). LeuT was expressed in E. coli C41 (DE3) transformed with pET16b encoding a C-terminus 8×His-tagged transporter (the expression plasmid was provided by Dr E. Gouaux, Vollum Institute, Portland, Oreg., USA). In summary, following isolation of a bacterial membrane and lysis with 1% (w/v) DDM, the protein was allowed to bind to a Ni^2+-NTA resin (Life Technologies, Denmark), and eluted in 20 mM Tris-HCl (pH 8.0), 1 mM NaCl, 199 mM KCl, 0.05% (w/v) DDM and 300 mM imidazole. Afterward, the purified LeuT (approximately 1.5 mg/ml) was diluted with the same buffer used above, from which DDM and imidazole were removed, and then supplemented with TMGs or DDM at the final concentration of CMC+0.04% (w/v). […] SPA was performed using a buffer containing 450 mM NaCl and each of the TMGs and TMMs at the predetermined concentration. The SPA reaction is performed in the presence of 20 nM [^3H]-Leucine and 1.25 mg/ml copper chelate (His-Tag) YSi beads (Perkin Elmer, Denmark). A total [^3H]-Leucine binding degree of each sample was measured using a MicroBeta liquid scintillation counter (Perkin Elmer).

Data set [5] concerns the target T2, melibiose permease (MelBSt) (Salmonella typhimurium, UniProt P30878).
T2 construct: made in house; host or cells: E. coli DW2 cells (melB and lacZY), plasmid pK95AHB/WT MelBSt/CH10
The experiment in a line: MelBSt extraction and solubility at four temperatures, SDS-PAGE and western blotting. In kind it is biochemical. The following applies: 1.5 wt %, 90 minutes. The method, then: An experiment was performed to measure structural stability of Salmonella typhimurium melibiose permease (MelBSt) protein by TMGs. The MelBSt protein was extracted from a membrane using TMGs or DDM, and then an amount of the extracted protein and its structure were analyzed by SDS-PAGE and western blotting. A concentration of the amphipathic molecule used was 1.5 wt %, and two types of performance such as protein extraction efficiency and stabilization ability of the compound were simultaneously evaluated by extracting the protein at four temperatures (0, 45, 55, and 65° C.), incubating the protein for 90 minutes at the same temperatures, and measuring an amount of the protein remaining dissolved in an aqueous solution. The amount of the protein extracted and stabilized by each amphipathic molecule was expressed as a relative value (%) with respect to a total amount of the protein contained in a membrane sample not treated with an amphipathic molecule.
Specifically, Salmonella typhimurium MelBSt (melibiose permease) having a 10-His tag at the C-terminus was expressed in E. coli DW2 cells (melB and lacZY) using plasmid pK95AHB/WT MelBSt/CH10. According to the method disclosed in the article written by A. S. Ethayathulla et al. (Nat. Commun. 2014, 5, 2009), cell growth and membrane preparation were performed. A protein assay was performed using a Micro BCA kit (Thermo Scientific, Rockford, Ill.). Using the protocol disclosed in Nat. Methods 2010, 7, 1003-1008 written by P. S. Chae et al., DDM or TMGs were evaluated for MelBSt stability. A MelBSt-containing membrane sample (the final protein concentration was 10 mg/mL) was incubated at four temperatures (0, 45, 55 and 65° C.) for 90 minutes in a 1.5% (w/v) DDM or TMG-containing solubilization buffer (20 mM sodium phosphate, pH 7.5, 200 mM NaCl, 10% glycerol, 20 mM melibiose). To remove insoluble material, ultracentrifugation was performed using a Beckman Optima™ MAX ultracentrifuge equipped with a TLA-100 rotor at 355,590 g at 4° C. for 45 minutes, and then 20 μg of each protein sample was separated using SDS-15% PAGE, followed by immunoblotting using a Penta-His-HRP antibody (Qiagen, Germantown, Md.). MelBSt was measured by an ImageQuant LAS 4000 biomolecular imager (GE Health Care Life Sciences) using a SuperSignal West Pico chemiluminescent substrate.

“Also recorded” adds a separate entry of the source.

`CCCCCCCCCCCCO[C@@H]1O[C@H](CO)[C@@H](O[C@H]2O[C@H](CO)[C@@H](O)[C@H](O)[C@H]2O)[C@H](O)[C@H]1O` [DDM, n-dodecyl-β-D-maltopyranoside, reference compound]: in data set [1], the “CMC” value is reported as roughly 0.17 mM and the “CMC (wt %)” value is reported as roughly 0.0087 wt %. The “Rh (nm), hydrodynamic radius of micelles” value in data set [2] stood at 3.4 ± 0.03 nm. Further, the “stability of the LHI-RC complex” value in data set [3] was “significantly reduced complex stabilization as the concentration increased from CMC+0.04 wt % to CMC+0.2 wt %”. In data set [4] (TMMs or DDM at CMC+0.04 wt %, incubation at room temperature, FIG. 13a), the “activity of LeuT over time” value is given as “gradually reduced over time”. Also, in data set [5] (0° C.), the “amount of MelBSt solubilized / extraction efficiency” value is recorded as “slightly more excellent protein extraction efficiency than TMGs”. In addition, the MelBSt remaining solubilized in data set [5] (55° C.) is given as 10%. Moreover, in data set [5] (65° C.), the “MelBSt protein dissolved in aqueous solution” value is recorded as “not detected”.

Consider `CCCCCCCCCCCCC(CCCC(CCCCCCCCCCCC)(CO[C@@H]1OC(CO)[C@@H](O)C(O)C1O)CO[C@@H]1OC(CO)[C@@H](O)C(O)C1O)(CO[C@@H]1OC(CO)[C@@H](O)C(O)C1O)CO[C@@H]1OC(CO)[C@@H](O)C(O)C1O` (some centres unmarked) [TMG-A12], for which, in data set [1], the “CMC” value is listed as roughly 0.010 mM and the “CMC (wt %)” value is given as roughly 0.0012 wt %. In data set [2], the “Rh (nm), hydrodynamic radius of micelles” value worked out at 3.3 ± 0.09 nm. The “substrate-binding ability of LeuT” value in data set [4] (TMGs or DDM at CMC+0.04 wt %, 10 days at room temperature) is reported as “substantially higher substrate-binding ability of the transporter than DDM; also recorded: well maintained for 10 days”. In addition, in data set [5] (45° C.), the “amount of MelBSt solubilized / extraction efficiency” value was “almost all MelBSt was successfully extracted”. Further, the “amount of MelBSt solubilized / extraction efficiency” value in data set [5] (55° C.) is on record as “excellent protein extraction efficiency was able to be confirmed”.

Values taken from US10808003B2, “Amphipathic molecule based on tandem malonate and use thereof” (Industry-University Cooperation Foundation Hanyang …, priority 2017, dated 2020).
